Source: patent US20200345846A1, “CORROLE COMPOSITIONS” (TECHNION RESEARCH & DEVELOPMENT FOUNDATION LIMITED, priority 2017, published 2020)

System: DU-145 prostate cancer cell line
Test: FACS analysis with annexin V-FITC kit (apoptosis)
Type: cell-based, human
Conditions: analysis after 4 h
Procedure: Cells (DU-145) were seeded in 6-well microtiter plates (5×10^4 cells/mL; 3 mL per well) 24 h before the addition of assigned compounds/albumin particles. At the time of drug treatment, stock solutions of compounds were diluted to 10-fold the desired final test concentrations with EMEM medium. Aliquots of 300 μL of these diluted solutions were added to the appropriate microtiter wells containing 2700 μL of medium, resulting in the required final drug concentrations (according to assigned concentration). The final concentration of DMSO (given that the compound required DMSO for solvation) in test culture was <1%. […] Following 24-72 h of exposure at 37° C., cells were re-suspended with trypsin into PBS pH 7.2 and pelleted at 3000 rpm for 5 min. Samples were washed under PBS×3 times. Samples were taken for measurement using a BD LSR-II Analyzer supported with BD FACSDiVa™ Software Version 6.1 for data analysis. Corrole fluorescence was measured using appropriate filters for excitation (405 nm, DAPI) and emission (Ds-RED). FIGS. 15A-F present FACS analysis of DU-145 prostate cancer cell line treated with an annexin V-FITC kit after 4 h incubation with: HSA control; FIGS. 15B-F present 5-Ga HSA NP's 2, 5, 10, 15, 20 μM respectively. […] Analysis of β-lapachone was done after 4 h since it induces apoptosis faster.

## CC1(C)CCC2=C(O1)c1ccccc1C(=O)C2=O [Corrole 0-lapachone, β-lapachone]
  shift of annexin V-FITC distribution curve: strong shift of the distribution curve towards stronger mean fluorescence
